Read-outs that look alike come from different tables or passages of the source.
Tests used:
JJN-3 cells = assay: Antiproliferative activity on JJN-3 (NIK translocated) multiple myeloma cells (CellTiter-Glo); type: cell-based, human; details: JJN-3 (NIK translocated) cells, 96 hr treatment, averaged values, read-out: JJN-3 Proliferation inhibition (IC50 (nM))
Description: (§1) Determination of Antiproliferative Activity on JJN-3 (NIK Translocated) and KMS12-BM (NIK WT) Multiple Myeloma Cells
(§2) All compounds tested were dissolved in DMSO and further dilutions were made in culture medium. Final DMSO concentration was 0.3% (v/v) in cell proliferation assays. Viability was assessed using CellTiter-Glo cell viability assay kit (Promega). The human JJN-3 and KMS12-BM cells (DSMZ) were cultured in RPMI 1640 medium supplemented with 2 mM L-glutamine, and 10% fetal calf serum (PAA). Cells were routinely kept as suspension cells at 37° C. in a humidified 5% CO2 atmosphere. Cells were passaged at a seeding density of 0.2×10^6/ml twice a week. Cells were seeded in black tissue culture treated 96-well plates (Perkin Elmer). Densities used for plating ranged from 15000 (JJN3) to 20000 (KMS12BM) cells per well in a total volume of […]. Drugs and/or solvents were added (15 μl) to a final volume of 150 μl. Following 96 hr of treatment, plates were removed from the incubator and allowed to equilibrate to room temperature for approx 10 min. 75 μl CellTiter-Glo reagent was added to each well that was then covered (Perkin Elmer Topseal) and shaken on plate shaker for 10 min. Luminescence was measured on a HTS Topcount (Perkin Elmer). Within an experiment, the results for each treatment were the mean of 2 replicate wells. For initial screening purposes, compounds were tested using a 9 point dilution curve (serial 1:3 dilutions). For each experiment, controls (containing no drug) and a blank incubation (containing cells read at the time of compound addition) were run in parallel. The blank value was subtracted from all control and sample values. For each sample, the mean value for cell growth (in relative light units) was expressed as a percentage of the mean value for cell growth of the control.

NIK/MAP3K14 = NIK/MAP3K14 (Homo sapiens (Human), UniProt Q99558); assay: Inhibition of auto-phosphorylation of recombinant human NF-kappaB-inducing kinase (NIK/MAP3K14) activity (AlphaScreen); type: biochemical; details: averaged values over all measurements on all batches, 25 microM ATP
Description: Inhibition of Auto-Phosphorylation of Recombinant Human NF-kappaB-Inducing Kinase ([…]) Activity (AlphaScreen®)
NIK/MAP3K14 auto-phosphorylation activity was measured using the AlphaScreen® (αscreen) format (Perkin Elmer). All compounds tested were dissolved in dimethyl sulfoxide (DMSO) and further dilutions were made in assay buffer. Final DMSO concentration was […] in assays. Assay buffer was 50 mM Tris pH 7.5 containing 1 mM EGTA (ethylene glycol tetraacetic acid), 1 mM DTT (dithiothreitol), 0.1 mM Na3VO4, 5 mM MgCl2, 0.01% Tween® 20. Assays were carried out in 384 well Alphaplates (Perkin Elmer). Incubations consisted of compound, 25 microM Adenosine-5′-triphosphate (ATP), and 0.2 nM NIK/MAP3K14. Incubations were initiated by addition of GST-tagged NIK/MAP3K14 enzyme, carried out for 1 h at 25° C. and terminated by addition of stop buffer containing anti-phospho-[…] Ser176/180 antibody. Protein A Acceptor and Glutathione-Donor beads were added before reading using an EnVision® Multilabel Plate Reader (Perkin Elmer). Signal obtained in the wells containing blank samples was subtracted from all other wells and IC50's were determined by fitting a sigmoidal curve to % inhibition of control versus Log10 compound concentration.

KMS12-BM cells = assay: Antiproliferative activity on KMS12-BM (NIK WT) multiple myeloma cells (CellTiter-Glo); type: cell-based, human; details: 96 hr treatment, averaged values, read-out: KMS-12 Proliferation inhibition (IC50 (nM))
Description: as §1, §2

Chain of NIK/MAP3K14 (Q99558 whole entry): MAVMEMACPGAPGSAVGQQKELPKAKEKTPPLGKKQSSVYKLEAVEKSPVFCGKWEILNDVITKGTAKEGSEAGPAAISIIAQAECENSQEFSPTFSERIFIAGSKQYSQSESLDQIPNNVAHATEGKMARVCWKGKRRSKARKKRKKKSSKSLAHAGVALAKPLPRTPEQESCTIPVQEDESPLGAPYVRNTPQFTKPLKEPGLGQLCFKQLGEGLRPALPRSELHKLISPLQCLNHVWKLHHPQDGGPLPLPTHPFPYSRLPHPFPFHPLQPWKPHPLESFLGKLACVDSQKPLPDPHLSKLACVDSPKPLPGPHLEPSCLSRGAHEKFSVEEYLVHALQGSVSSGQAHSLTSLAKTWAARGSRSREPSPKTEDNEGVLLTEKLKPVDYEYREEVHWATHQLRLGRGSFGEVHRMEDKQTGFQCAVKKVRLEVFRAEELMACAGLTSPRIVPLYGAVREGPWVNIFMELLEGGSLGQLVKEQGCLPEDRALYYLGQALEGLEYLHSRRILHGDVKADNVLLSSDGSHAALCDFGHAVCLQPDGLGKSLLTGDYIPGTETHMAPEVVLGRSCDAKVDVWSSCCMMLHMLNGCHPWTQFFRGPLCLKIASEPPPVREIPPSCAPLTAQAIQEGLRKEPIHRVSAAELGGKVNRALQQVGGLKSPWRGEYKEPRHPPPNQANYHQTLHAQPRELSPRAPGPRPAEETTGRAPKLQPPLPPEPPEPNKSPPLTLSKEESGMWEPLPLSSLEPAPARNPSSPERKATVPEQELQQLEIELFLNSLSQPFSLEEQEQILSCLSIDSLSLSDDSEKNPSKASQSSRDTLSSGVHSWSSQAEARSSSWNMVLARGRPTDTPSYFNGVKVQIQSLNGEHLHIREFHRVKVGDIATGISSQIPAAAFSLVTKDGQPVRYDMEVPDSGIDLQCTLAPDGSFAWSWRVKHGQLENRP

CC1(CO)CNc2c(C#N)cc(-c3ccnc(Nc4ccc5c(c4)CC(CO)OC5)n3)cc21 (single isomer, unassigned) [Compound 5]
IC50 (JJN-3 cells; Homo sapiens, JJN-3, 96 h): 21 nM | IC50 (NIK/MAP3K14): 1.9 nM | IC50 (KMS12-BM cells; Homo sapiens, KMS-12-BM, 96 h): 151 nM

CC1(CO)CNc2c(C#N)cc(-c3ccnc(Nc4ccc5c(c4)CC(CO)OC5)n3)cc21 (single isomer, unassigned) [Compound 8]
IC50 (JJN-3 cells): 41 nM | IC50 (NIK/MAP3K14): 2 nM | IC50 (KMS12-BM cells): 162 nM

CC1(CO)CNc2c(C#N)cc(-c3ccnc(Nc4ccc5c(c4)CCCO5)n3)cc21 (stereo not shown) [Compound 1]
IC50 (JJN-3 cells; Homo sapiens, JJN-3, 96 h): 96 nM | IC50 (NIK/MAP3K14): 5.9 nM | IC50 (KMS12-BM cells; Homo sapiens, KMS-12-BM, 96 h): 550 nM

CC1(C)CNc2c(C#N)cc(-c3ccnc(Nc4cccc5c4CNC5)n3)cc21 [Compound 2]
IC50 (JJN-3 cells; Homo sapiens, JJN-3, 96 h): 112 nM | IC50 (NIK/MAP3K14): 4.3 nM | IC50 (KMS12-BM cells; Homo sapiens, KMS-12-BM, 96 h): ~177 nM

CN1CCc2ccc(Nc3nccc(-c4cc(C#N)c5c(c4)C(C)(CO)CN5)n3)cc2CC1 (stereo not shown) [Compound 3]
IC50 (JJN-3 cells; Homo sapiens, JJN-3, 96 h): ~24 nM | IC50 (NIK/MAP3K14): 1.4 nM | IC50 (KMS12-BM cells; Homo sapiens, KMS-12-BM, 96 h): 85 nM

CC1(CO)CNc2c(C#N)cc(-c3ccnc(Nc4cc(Cl)cc5c4OCCC5)n3)cc21 (stereo not shown) [Compound 4]
IC50 (JJN-3 cells; Homo sapiens, JJN-3, 96 h): 107 nM | IC50 (NIK/MAP3K14): 26.9 nM | IC50 (KMS12-BM cells; Homo sapiens, KMS-12-BM, 96 h): > 10000 nM

Cn1nc2c(c1Nc1nccc(-c3cc(C#N)c4c(c3)C(C)(CO)CN4)n1)CCC2 (stereo not shown) [Compound 4b]
IC50 (JJN-3 cells; Homo sapiens, JJN-3, 96 h): 1900 nM | IC50 (NIK/MAP3K14): 8.5 nM | IC50 (KMS12-BM cells; Homo sapiens, KMS-12-BM, 96 h): ~6460 nM

CC1(CO)CNc2c(C#N)cc(-c3ccnc(Nc4cc(Cl)cc5c4ccn5CCN4CCOCC4)n3)cc21 (stereo not shown) [Compound 4c]
IC50 (JJN-3 cells; Homo sapiens, JJN-3, 96 h): 9 nM | IC50 (NIK/MAP3K14): 9.6 nM | IC50 (KMS12-BM cells; Homo sapiens, KMS-12-BM, 96 h): ~1020 nM

Cn1nc(Nc2nccc(-c3cc(C#N)c4c(c3)C(C)(CO)CN4)n2)c2c1CCC2 (stereo not shown) [Compound 5b]
IC50 (JJN-3 cells; Homo sapiens, JJN-3, 96 h): 468 nM | IC50 (NIK/MAP3K14): 20.4 nM | IC50 (KMS12-BM cells; Homo sapiens, KMS-12-BM, 96 h): > 10000 nM

CC1(CO)CNc2c(C#N)cc(-c3ccnc(Nc4cc(Cl)cc5c4ccn5CCCN4CCOCC4)n3)cc21 (stereo not shown) [Compound 5c]
IC50 (JJN-3 cells; Homo sapiens, JJN-3, 96 h): 23 nM | IC50 (NIK/MAP3K14): 12 nM | IC50 (KMS12-BM cells; Homo sapiens, KMS-12-BM, 96 h): ~692 nM

CC1(C)CNc2c(C#N)cc(-c3ccnc(Nc4cccc5c4CNCC5)n3)cc21 [Compound 6]
IC50 (JJN-3 cells; Homo sapiens, JJN-3, 96 h): 263 nM | IC50 (NIK/MAP3K14): 12.6 nM | IC50 (KMS12-BM cells; Homo sapiens, KMS-12-BM, 96 h): 794 nM

CC1OCCn2nc(Nc3nccc(-c4cc(C#N)c5c(c4)C(C)(CO)CN5)n3)cc21 (stereo not shown) [Compound 6b]
IC50 (JJN-3 cells; Homo sapiens, JJN-3, 96 h): 398 nM | IC50 (NIK/MAP3K14): 5.9 nM | IC50 (KMS12-BM cells; Homo sapiens, KMS-12-BM, 96 h): ~851 nM

COCCCn1ccc2c(Nc3nccc(-c4cc(C#N)c5c(c4)C(C)(CO)CN5)n3)cc(Cl)cc21 (stereo not shown) [Compound 6c]
IC50 (JJN-3 cells; Homo sapiens, JJN-3, 96 h): 10 nM | IC50 (NIK/MAP3K14): 34.8 nM | IC50 (KMS12-BM cells; Homo sapiens, KMS-12-BM, 96 h): 1620 nM

CC1(CO)CNc2c(C#N)cc(-c3ccnc(Nc4ccc5c(c4)C(F)(F)CCO5)n3)cc21 (stereo not shown) [Compound 7]
IC50 (JJN-3 cells; Homo sapiens, JJN-3, 96 h): 48 nM | IC50 (NIK/MAP3K14): 5.9 nM | IC50 (KMS12-BM cells; Homo sapiens, KMS-12-BM, 96 h): 525 nM

CC1(CO)CNc2c(C#N)cc(-c3ccnc(Nc4cc5n(n4)CCOC5)n3)cc21 (stereo not shown) [Compound 7b]
IC50 (JJN-3 cells; Homo sapiens, JJN-3, 96 h): 1700 nM | IC50 (NIK/MAP3K14): 11.8 nM | IC50 (KMS12-BM cells; Homo sapiens, KMS-12-BM, 96 h): 6310 nM

CN1Cc2cc(Nc3nccc(-c4cc(C#N)c5c(c4)C(C)(CO)CN5)n3)nn2CC1=O (stereo not shown) [Compound 8b]
IC50 (JJN-3 cells; Homo sapiens, JJN-3, 96 h): 1150 nM | IC50 (NIK/MAP3K14): 4 nM | IC50 (KMS12-BM cells; Homo sapiens, KMS-12-BM, 96 h): 6170 nM

CC1(C)CNc2c(C#N)cc(-c3ccnc(Nc4cc(F)cc5[nH]ccc45)n3)cc21 [Compound 8c]
IC50 (JJN-3 cells; Homo sapiens, JJN-3, 96 h): 85 nM | IC50 (NIK/MAP3K14): 38 nM | IC50 (KMS12-BM cells; Homo sapiens, KMS-12-BM, 96 h): > 10000 nM

CC(=O)N1CCc2c(C)c(Nc3nccc(-c4cc(C#N)c5c(c4)C(C)(CO)CN5)n3)cc(Cl)c21 (stereo not shown) [Compound 9]
IC50 (JJN-3 cells; Homo sapiens, JJN-3, 96 h): 25 nM | IC50 (NIK/MAP3K14): 2 nM | IC50 (KMS12-BM cells; Homo sapiens, KMS-12-BM, 96 h): ~2750 nM

CN1CCn2nc(Nc3nccc(-c4cc(C#N)c5c(c4)C(C)(CO)CN5)n3)cc2C1 (stereo not shown) [Compound 9b]
IC50 (JJN-3 cells; Homo sapiens, JJN-3, 96 h): 204 nM | IC50 (NIK/MAP3K14): 6.8 nM | IC50 (KMS12-BM cells; Homo sapiens, KMS-12-BM, 96 h): 1660 nM

Cc1c(Nc2nccc(-c3cc(C#N)c4c(c3)C(C)(CO)CN4)n2)cc(Cl)c2[nH]ccc12 (stereo not shown) [Compound 9c]
IC50 (JJN-3 cells; Homo sapiens, JJN-3, 96 h): 1180 nM | IC50 (NIK/MAP3K14): 10.5 nM | IC50 (KMS12-BM cells; Homo sapiens, KMS-12-BM, 96 h): 5620 nM

CC1(CO)CNc2c(C#N)cc(-c3ccnc(Nc4cc(Cl)cc5c4CCN5)n3)cc21 (stereo not shown) [Compound 10]
IC50 (JJN-3 cells; Homo sapiens, JJN-3, 96 h): 42 nM | IC50 (NIK/MAP3K14): 4.9 nM | IC50 (KMS12-BM cells; Homo sapiens, KMS-12-BM, 96 h): ~5750 nM

CC(C)c1c(Nc2nccc(-c3cc(C#N)c4c(c3)[C@@](C)(CO)CN4)n2)nn2c1CN(C)CC2 [Compound 16b]
IC50 (NIK/MAP3K14): 363 nM

From patent US11186589B2, “Cyanoindoline derivatives as NIK inhibitors” (Janssen Pharmaceutica NV, priority 2016, dated 2021)
